Experimental findings from the supplement of paper PMC11281043 are described below.

The structures appear in SMILES notation.

Conditions in all cases: exposure: 6-8 hpf to 5 dpf, scored at 6 dpf
Test [1] has as its system Danio rerio embryo/larva. Kind of test: max % larvae with pigmentation defects across tested concentrations; higher = more toxic.
The test system of test [2] is Danio rerio embryo/larva. Kind of test: max % larvae with edema across tested concentrations; higher = more toxic; extreme values may be limits of the assay.
Test [3] concerns Danio rerio embryo/larva. As to the kind of experiment: max % larvae with tail defects across tested concentrations; higher = more toxic; extreme values may be limits of the assay.
The test system of test [4] is Danio rerio embryo/larva. Kind of test: max % larvae with blood pooling across tested concentrations; higher = more toxic; extreme values may be limits of the assay.
In test [5] the test system is Danio rerio embryo/larva. As to the kind of experiment: max % larvae with spinal defects across tested concentrations; higher = more toxic; extreme values may be limits of the assay.
Test [6] relates to Danio rerio embryo/larva. As to the kind of experiment: max % larvae with abnormal position across tested concentrations; higher = more toxic; extreme values may be limits of the assay.
Test [7] concerns Danio rerio embryo/larva. As to the kind of experiment: max % larvae with craniofacial defects across tested concentrations; higher = more toxic; extreme values may be limits of the assay.
The subject of test [8] is Danio rerio embryo/larva. As to the kind of experiment: max % larvae with uninflated swim bladder across tested concentrations; higher = more toxic; extreme values may be limits of the assay.
Test [9] concerns Danio rerio embryo/larva. As to the kind of experiment: max % larvae unhatched across tested concentrations; max tested concentration (log10 uM): 2; higher = more toxic.
Test [10] has as its system Danio rerio embryo/larva. Kind of test: max % larvae with any abnormality across tested concentrations; max tested concentration (log10 uM): 2; higher = more toxic; extreme values may be limits of the assay.

On to `O=P(O)(O)CCC(F)(F)C(F)(F)C(F)(F)C(F)(F)C(F)(F)C(F)(F)F` [2-(Perfluorohexyl)ethylphosphonic acid] (max tested concentration (log10 uM): 2), for which the max % larvae in test [1] was 0%; in test [2], 60%; in [3], 0%; in test [4], 0%; in [5], 0%; in [6], 10%. For the same compound, the max % larvae in [7] turned out to be 20%; in [8] it was 40%.

As to `O=C(O)C(F)(F)C(F)(F)C(F)(F)C(F)(F)C(F)(F)C(F)(F)F` [Perfluoroheptanoic acid], the “max % larvae unhatched across tested concentrations” value in test [9] was 0%. The compound further gave a max % larvae in test [10] of 16.7%.

In the case of `O=C(O)C(F)(F)C(F)(F)OC(F)(F)F` [Perfluoro-3-methoxypropanoic acid] (max tested concentration (log10 uM): 2), the max % larvae stood at 0% in test [1]; 8.33% in [2]; 0% in test [3]; 16.7% in test [4]; 0% in test [5]; 0% in test [6]. Besides, the max % larvae in [7] and in test [8] was 0% throughout.

Take `OCCCCC(F)(F)C(F)(F)C(F)(F)C(F)(F)F` [4:4 Fluorotelomer alcohol] (max tested concentration (log10 uM): 2): the max % larvae in test [1] was 0%; in [2], 93.8%; in test [3], 15.6%; in test [4], 0%; in test [5], 0%; in test [6] it was 18.8%. The values for the max % larvae in test [7] and in test [8] were 81.2% and 93.8%, respectively.

As to `FC(F)(F)C(F)(F)C(F)(F)CC1CO1` (configuration not stated) [1H,1H-Heptafluorobutyl epoxide] (max tested concentration (log10 uM): 2), the max % larvae in [1] was 0%; in test [2] it was 9.09%; in test [3] it was 9.09%; in test [4] it was 9.09%; in [5], 0%; in test [6], 0%. The max % larvae in test [7] and in test [8] was 9.09% in each case.

On to `O=S(=O)(O)CCC(F)(F)C(F)(F)C(F)(F)C(F)(F)C(F)(F)C(F)(F)F` [6:2 Fluorotelomer sulfonic acid] (max tested concentration (log10 uM): 2), for which the max % larvae in test [1] turned out to be 0%; in [2] it was 4.17%; in test [3] it was 0%; in test [4], 0%; in test [5] it was 0%; in [6] it was 4.17%. For the same compound, the max % larvae in [7] and in test [8] was 0% in each case.

For the compound `C=C(C)C(=O)OCC(F)(F)C(F)(F)C(F)(F)F` [(Perfluoropropyl)methyl methacrylate] (max tested concentration (log10 uM): 2), the max % larvae in test [1] is 4.17%; in test [2], 8.33%; in test [3], 4.17%; in test [4], 0%; in test [5], 0%; in test [6], 4.17%. Besides, the max % larvae in [7] and in [8] was 8.33% in each case.

For `O=C(O)C(F)(F)C(F)(F)C(F)(F)C(F)(F)C(F)(F)C(F)(F)C(F)(F)F` [Perfluorooctanoic acid], the “max % larvae unhatched across tested concentrations” value in [9] came to 0%. Also, in test [10], the max % larvae came to 16.7%.

On to `NC(=O)C(F)(F)C(F)(F)C(F)(F)F` [Heptafluorobutyramide] (max tested concentration (log10 uM): 2), for which the max % larvae in test [1] was 0%; in [2], 8.33%; in test [3] it was 0%; in [4] it was 0%; in test [5], 0%; in [6] it was 0%. Further, the figures for the max % larvae in [7] and in test [8] were 0% and 10%, respectively.

For the compound `O=S(=O)(Cl)C(F)(F)C(F)(F)C(F)(F)C(F)(F)C(F)(F)C(F)(F)C(F)(F)C(F)(F)F` [Perfluoro-1-octanesulfonyl chloride] (max tested concentration (log10 uM): 2), the max % larvae in test [1] was 0%; in [2], 100%; in [3], 100%; in test [4], 0%; in test [5], 25%; in test [6], 25%. For the same compound, the max % larvae in test [7] and in [8] was 100% throughout.

For the compound `O=C(O)CCC(F)(F)C(F)(F)C(F)(F)F` [3:3 Fluorotelomer carboxylic acid] (max tested concentration (log10 uM): 2), the max % larvae in test [1] stood at 0%; in test [2], 17.5%; in [3], 2.5%; in [4], 10%; in [5], 0%; in [6], 7.5%. Further, the max % larvae in [7] turned out to be 10%; in test [8] it was 20%.

As to `O=S(=O)(O)C(F)(F)C(F)(F)C(F)(F)C(F)(F)C(F)(F)C(F)(F)C(F)(F)F` [Perfluoroheptanesulfonic acid] (max tested concentration (log10 uM): 1.90309), the max % larvae in test [1] was found to be 16.7%; in test [2] it was 91.7%; in [3], 37.5%; in test [4], 50%; in test [5], 8.33%; in test [6], 50%. Besides, the max % larvae in [7] and in [8] was 100% throughout.

In the case of `O=C(O)C(F)(F)C(F)(F)C(=O)O` [Perfluorobutanedioic acid] (max tested concentration (log10 uM): 2), the max % larvae came out at 0% in test [1]; 8.33% in test [2]; 0% in test [3]; 8.33% in test [4]; 0% in [5]; 4.17% in test [6]. In addition, the max % larvae in test [7] and in test [8] was 0% in each case.
